{"source": "patent US12276869B1", "about": "“WS12-releasing contact lens” (CooperVision International Limited, priority 2022, dated 2025)", "origin": "cited, not measured here", "conditions": "incorporated into silicone hydrogel contact lenses"}
{"smiles": "COc1ccc(NC(=O)C2CC(C)CCC2C(C)C)cc1", "note": "(stereo not shown) [WS12, N-(4-Methoxyphenyl)-5-methyl-2-(1-methylethyl)cyclohexanecarboxamide]", "values": [{"measurement": "stability to autoclave sterilization in silicone hydrogel contact lenses", "value": "withstand autoclave sterilization without degradation or leaching into the packaging solution"}]}
